From patent US20060173183A1, “Multicyclic bis-amide MMP inhibitors” (Alantos Pharmaceuticals, Inc.,, priority 2004, published 2006)
pIC50: −log10 of the molar value.

target: MMP-13 (Homo sapiens, UniProt P45452); test: Assay for determining MMP-13 inhibition (fluorogenic substrate); type: biochemical; conditions: Table 1, Summary of MMP-13 Activity for Compounds of Formula I; bounds only
Method: The MMP-13 inhibiting activity of the multicyclic bis-amide MMP-13 inhibiting compounds of the present invention may be measured using any suitable assay known in the art. A standard in vitro assay for MMP-13 inhibiting activity is described in Example 3000.
Assay for Determining MMP-13 Inhibition
The typical assay for MMP-13 activity is carried out in assay buffer comprised of 50 mM Tris, pH 7.5, 150 mM NaCl, 5 mM CaCl2 and 0.05% Brij-35. Different concentrations of tested compounds are prepared in assay buffer in 50 μL aliquots. 10 μL of 40 nM stock solution of MMP-13 enzyme is added to the compound solution. The mixture of enzyme and compound in assay buffer is thoroughly mixed and incubated for 20 minutes at room temperature. Upon the completion of incubation, the assay is started by addition of 40 μL of 12.5 μM stock solution of MMP-13 fluorogenic substrate (Calbiochem Cat. No. 444235). The time-dependent increase in fluorescence is measured at the 325 nm excitation and 393 nm emission by automatic plate multireader. The IC50 values are calculated from the initial reaction rates. Selectivity assays were run in a similar manner using MMP-1, MMP-14 and TACE.

SMILES	pIC50
Cc1cc(CNC(=O)c2cc(C(=O)NC3CCCc4cc(-c5nnn[nH]5)ccc43)ncn2)ccc1F (stereo not shown) [Ex. 2301]	< 8.30
Cc1cc(CNC(=O)c2cc(C(=O)N[C@H]3CCc4cc(-c5nnn[nH]5)ccc43)ncn2)ccc1F [Ex. 2303]	< 8.30
COc1cccc(CNC(=O)c2cc(C(=O)N[C@H]3CCc4cc(-c5nnn[nH]5)ccc43)ncn2)c1 [Ex. 2308]	< 8.30
Cc1cc(CNC(=O)c2cc(C(=O)NC3CCc4cc(-c5nnn[nH]5)ccc43)ncn2)ccc1F (stereo not shown) [Ex. 1]	< 8.30

The remaining lines, values ahead:

pIC50	SMILES
> 8.30	Cc1c(C(=O)O)ccc2c1CC[C@@H]2NC(=O)c1cc(C(=O)NCc2ccc3c(c2)CN(c2c(N)c(=O)c2=O)CC3)ncn1 [Ex. 2539]
> 8.30	Cc1c(-c2nnn[nH]2)ccc2c1CC[C@@H]2NC(=O)c1cc(C(=O)NCc2ccc3c(c2)CN(c2c(N)c(=O)c2=O)CC3)ncn1 [Ex. 2328]
> 8.30	COc1cc(CNC(=O)c2cc(C(=O)N[C@H]3CCc4c3ccc(C(=O)O)c4C)ncn2)ccc1F [Ex. 2562]
> 8.30	COc1cccc(CNC(=O)c2cc(C(=O)N[C@H]3CCc4cc(-c5noc(=O)[nH]5)ccc43)ncn2)c1 [Ex. 2407]
> 8.30	Cc1cc(CNC(=O)c2cc(C(=O)N[C@H]3CCc4c3ccc(C(=O)O)c4C)ncn2)ccc1F [Ex. 2522]
> 8.30	Cc1cc(CNC(=O)c2cc(C(=O)N[C@H]3CCc4cc(C(=O)O)ccc43)nc(N)n2)ccc1F [Ex. 2702]
